From patent US20250057961A1, “BLOOD-BRAIN BARRIER PENETRATING DRUG DELIVERY SYSTEM USING SIALYLLACTOSE” (GENECHEM INC., priority 2021, published 2025) come the findings set out here.

For series [1] the following is noted: mouse, in vivo.
Procedure: (§1) First, the fluorescent substance Cy5.5 (Genechem, Cat no. GCCD0064) was attached to each of lactose, 2,3-sialyllactose (GCB100) and 2,6-sialyllactose (GCB200), and each substance was dissolved and diluted in 10% DMSO, thus preparing samples (final DMSO concentration is approximately 2% of the total volume). After administering each sample at 1 mol/kg into the veins of BALB/c nude mice, the fluorescence signals in the brains of the nude mice were measured at different time points (1, 2, 4, 6, 8, and 24 hours) using the IVIS spectrum CT (Perkin Elmer).
(§2) Next, the fluorescent substance Cy5.5 (Genechem, Cat no. GCCD0064) was attached to each of sialic acid, 2,3-sialyllactose (GCB100) and 2,6-sialyllactose (GCB200), and each substance was dissolved and diluted in 10% DMSO, thus preparing samples (final DMSO concentration is approximately 2% of the total volume). After administering each sample at 1 mol/kg into the veins of BALB/c nude mice, the fluorescence signals in the brains of the nude mice were measured at different time points (10 min, 30 min, 1, 2, 4, 6, 8, and 24 hours) using the IVIS spectrum CT (Perkin Elmer). 24 hours after administration, the nude mice were perfused with saline solution, the brains were extracted, and fluorescence present in the brains was measured.
(§3) The experiment was conducted in the same manner as the above-described experiment on blood-brain barrier penetration of sialyllactose.
(§4) Here, Cy5.5 alone and gemcitabine attached to only Cy5.5 were used as controls. First, each material was dissolved and diluted in 10% DMSO, thus preparing samples (final DMSO concentration is approximately 2% of the total volume). After administering each sample at 1 mol/kg into the veins of BALB/c nude mice, the fluorescence signals in the brains of the nude mice were measured at different time points (10 min, 30 min, 1, 2, 4, 6, 8, and 24 hours) using the IVIS spectrum CT (Perkin Elmer). 24 hours after administration, the nude mice were perfused with saline solution, the brains were extracted, and fluorescence present in the brains was measured.
Series [2] in a line: Blood-brain barrier penetration experiment: brain fluorescence of Cy5.5-attached substances (IVIS spectrum CT, in vivo and extracted brain). Conditions: for brain penetration (fluorescence signal in the brain): Cy5.5-attached substance, into the veins, up to 24 hours, FIGS. 1-3.
Procedure: as §1, §2, §3, §4
The test system of the next series is U-87MG. As to the kind of experiment: Anticancer efficacy in mouse brain cancer model (luciferase-expressing U-87MG transplanted into brain, optical imaging). The format is in vivo. Conditions: intravenously twice a week, 8 times for 4 weeks; GCB017 22 mol/kg; days 20, 24, 27; FIG. 13. On the procedure: The brain cancer model was produced by transplanting U-87MG, a brain cancer cell line that expresses luciferase. For transplantation into the brain, each animal was anesthetized by isoflurane injection and fixed on a stereotaxic arm, and the head skin was incised vertically by about 1 cm and the injection site was exposed using a micro drill. The cell line was transferred into a 25-μl Hamilton syringe equipped with a 31-gauge needle, and then the cell line was transplanted at a rate of 1 i/min to an area 1 mm anterior, 2 mm lateral, and 3 mm deep based on bregma. After cell line transplantation, in order to prevent reflux and ensure good absorption, the syringe was maintained for about 10 minutes and separated, and the incision was sutured and disinfected. After confirming that the anesthesia had worn off, the animals were reared normally. Starting 1 week after model production, each of methotrexate and GCB017 was administered intravenously twice a week for a total of 8 times for 4 weeks, and the size of the brain tumor was measured by optical imaging (FIG. 13). […] In combination with the results of Examples 3-2 and 3-3 above, it is believed that the sialyllactose-methotrexate conjugate according to the present invention has an improved BBB penetration ability compared to methotrexate and inhibits tumor formation and growth.

For another series, the system named is BxPC-3. Conditions: 5, 10, 20 and 40 nM, 72 hours, FIG. 16A.
The test system of a further series is PARP. Conditions: BxPC-3, 5-40 nM, 72 hours, FIG. 16B.
The subject of a further series is Caspase-3. Conditions: BxPC-3, 5-40 nM, 72 hours, FIG. 16B.
Series [3] in a line: Brain tissue penetration and substance dissociation (LC-MS/MS of tissue homogenate supernatant). Type of series: in vivo. How it is done: To examine the distribution and dissociation of sialyllactose-conjugated methotrexate in tissues, GCB017 was administered and the presence of GCB017 and its dissociates (linker-6′SL (L-6′SL) and linker) in the brain and pancreas was checked. Specifically, GCB017 was dissolved and diluted in 10% DMSO, thus preparing a sample (final DMSO concentration was approximately 2% of the total volume). The sample was administered intravenously (IV) at a dose of 80 mg/kg or administered orally (PO) at a dose of 80 mg/kg. Then, at different time points (0, 0.5, 2, and 4 hours), the animals were anesthetized, heart blood was collected, saline solution was perfused, and the brain and pancreas were extracted. Each of the extracted tissues was homogenized in 50 mM Tris-HCl buffer (pH 7.5) at a ratio of 1:5 and centrifuged at 3,000 rpm and 4° C. for 20 minutes, and the supernatant was collected and subjected to mass spectrometry (SCIEX Triple Quad 3500 LC-MS/MS system).
The sample was administered intravenously (IV) at a dose of 80 mg/kg or administered orally (PO) at a dose of 246 mg/kg. Then, at different time points (0, 0.5, 2, and 4 hours), the animals were anesthetized, heart blood was collected, saline solution was perfused, and the brain and pancreas were extracted. Each of the extracted tissues was homogenized in 50 mM Tris-HCl buffer (pH 7.5) at a ratio of 1:5 and centrifuged at 3,000 rpm and 4° C. for 20 minutes, and the supernatant was collected and subjected to mass spectrometry (SCIEX Triple Quad 3500 LC-MS/MS system).

Entries after “also recorded” stand apart in the source; their conditions may differ. Like-named read-outs stand apart in the source and are kept apart here.

Regarding `CC(=O)N[C@H]1[C@H]([C@H](O)[C@H](O)CO)OC(O)(C(=O)O)C[C@@H]1O` (stereo partly drawn) [sialic acid, reference compound], the “brain penetration (fluorescence signal in the brain)” value in series [1] was “brain penetration remained at a similar level”.
For the compound `CCN1\C(=C/C=C/C=C/C2=[N+](CCCCCC(=O)O)c3ccc4c(S(=O)(=O)O)cc(S(=O)(=O)O)cc4c3C2(C)C)C(C)(C)c2c1ccc1c(S(=O)(=O)[O-])cc(S(=O)(=O)O)cc21` [Cy5.5, reference compound], the “brain penetration (fluorescence signal in the brain)” value in series [2] was “barely penetrated the blood-brain barrier”. The “brain penetration (fluorescence signal in the brain) of sialyllactose-conjugated dopamine” value in series [2] (Cy5.5-attached, controls Cy5.5-dopamine or Cy5.5, FIGS. 5, 6, 8, 9) is recorded as “barely detected in the brain”.
Turning to 2,3-sialyllactose [GCB100], in series [2], the “brain penetration (fluorescence signal in the brain)” value was “well delivered to the brain, compared to lactose-bound Cy5.5”.
As to `CN(Cc1cnc2nc(N)nc(N)c2n1)c1ccc(C(=O)N[C@@H](CCC(=O)O)C(=O)O)cc1` [methotrexate, reference compound], in the series on U-87MG, the “size of the brain tumor” value is reported as “the tumor size also tended to increase gradually starting from day 20”. In addition, in series [2] (Cy5.5-attached, time-dependent and extracted brain at 24 hours, FIGS. 11, 12), the “fluorescence signal in the brain of sialyllactose-conjugated methotrexate” value is recorded as “almost no fluorescence signal appeared in the brain”.
As to “gemcitabine-succinate-aminohexyl-6′SL [GCB034]”, the “cell viability (anticancer effect)” value in the series with BxPC-3 is recorded as “induce cancer cell death at all treatment concentrations, but also exhibited a higher anticancer effect than gemcitabine”. Also, the “decrease in the pro-form of PARP” value in the series with PARP is given as “significant in a concentration-dependent manner”. Also, the “increase in Caspase-3 cleavage” value with Caspase-3 was “significant in a concentration-dependent manner”.
Consider `CC(=O)N[C@H]1[C@H]([C@H](O)[C@H](O)CO)O[C@@](OC[C@H]2O[C@@H](O[C@H]3[C@H](O)[C@@H](O)[C@H](OCCCCCCNC(=O)CC[C@H](NC(=O)c4ccc(N(C)Cc5cnc6nc(N)nc(N)c6n5)cc4)C(=O)O)O[C@@H]3CO)[C@H](O)[C@@H](O)[C@H]2O)(C(=O)O)C[C@@H]1O` [GCB017], for which the “presence of GCB017 and its dissociates in brain tissue” value in series [3] (80 mg/kg IV or 80 mg/kg PO) is listed as “detected in the brain tissue not only when GCB017 was administered intravenously but also when administered orally”. Moreover, the level at 2 h in series [3] (brain, iv, 80 mg/kg, GCB017 80 mg/kg IV, 2 h, single animals) is 52.7 ng/mL. Besides, in series [3] (brain, po, 80 mg/kg, GCB017 80 mg/kg PO, 4 h, single animals), the level at 4 h came to 30.3 ng/mL. Moreover, the “size of the brain tumor” value in the series with U-87MG is “tumor formation was delayed and the tumor size was also controlled”. For the same compound, in series [1], the “fluorescence signal in the brain of sialyllactose-conjugated methotrexate” value is given as “a strong fluorescence signal appeared”.
In the case of 2,6-sialyllactose [GCB200], the “brain penetration (fluorescence signal in the brain)” value in series [2] is reported as “well delivered to the brain, compared to lactose-bound Cy5.5; also recorded: the effect of 2,6-sialyllactose was higher than that of 2,3-sialyllactose”.
